Measured values published in PubChem BioAssay (NCI).
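Results reflect a 48-hour exposure of cells in 96-well plates to compound at five concentrations. GI50 = concentration required for 50% inhibition of growth. TGI denotes the concentration required for complete inhibition of growth.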

Experiments:
Assay in all cases: inhibition of tumour cell growth, NCI panel, 48 h
[1] = tested on: A498 renal
[2] = tested on: HOP-92 NSCLC
[3] = tested on: NCI-H226 lung
[4] = tested on: NCI-H23 lung
[5] = tested on: RXF 393 renal
[6] = tested on: SK-OV-3 ovarian
[7] = tested on: SN12C renal
[8] = tested on: SNB-75 CNS
[9] = tested on: SW-620 colon
[10] = tested on: T-47D breast

Compound | GI50 [1] [µM] | TGI [1] [µM] | GI50 [2] [µM] | TGI [2] [µM] | GI50 [3] [µM] | TGI [3] [µM] | GI50 [4] [µM] | TGI [4] [µM] | GI50 [5] [µM] | TGI [5] [µM] | GI50 [6] [µM] | TGI [6] [µM] | GI50 [7] [µM] | TGI [7] [µM] | GI50 [8] [µM] | TGI [8] [µM] | GI50 [9] [µM] | TGI [9] [µM] | GI50 [10] [µM] | TGI [10] [µM]
O=C(CC1(O)C(=O)Nc2ccc(Cl)cc21)c1ccc(C(=O)NCC2CCC3(CC2)OOC2(CCCCC2)OO3)cc1 (centres undefined) | 10.2 | 28 | 0.509 | 2.08 | 13.1 | 41.2 | 1.72 | 21.3 | 2.8 | 9.16 | 2.6 | 8.01 | 3.45 | 18.4 | 1.34 | 3.25 | 2.13 | 4.61 | 1.57 | 5.37
CC(C)(C)n1cc(-c2ccnc(NCCCNS(=O)(=O)c3cccc4ccccc34)c2)c(-c2cccc(O)c2)n1 | 1.37 | 5.1 | 1.71 | 5.07 | 1.97 | 4.36 | 1.78 | 3.84 | 1.52 | 3.06 | 2.63 | 7.23 | 1.73 | 3.33 | 1.88 | 5.48 | 1.81 | 3.62 | 2.22 | 6.18
Cc1cnc(C(=O)Nc2nc3ccc(S(=O)(=O)Nc4ccc(C(C)(C)C)cc4)cc3[nH]2)cn1 | 0.288 | 1.31 | 0.553 | 7.24 | 0.723 | 7.35 | 0.606 | 12.7 | 0.312 | 1.86 | 1.09 | 17.1 | 0.592 | 13.3 | 0.216 | 1.01 | 0.422 | 13.9 | 0.592 | 20.8
NS(=O)(=O)c1cccc(Nc2cc(-c3ccc(F)cc3)[nH]n2)c1 | 18.4 | > 25 | > 25 | > 25 | > 25 | > 25 | > 25 | > 25 | 17.8 | > 25 | 13.2 | > 25 | > 20.7 | > 25 | > 15.5 | > 25 | > 23.2 | > 25 | > 23.3 | > 25
COc1ccc(/C(=C(\c2ccccc2)[N+](=O)[O-])c2ccc(OCCN3CCCC3)cc2)cc1 | 2.19 | 10.9 | 2.25 | 12 | 4.37 | 18.2 | 4.94 | 18.6 | 1.65 | 3.76 | 5.5 | 18.3 | 7.79 | 22.4 | 2.24 | 8.17 | 1.74 | 4.19 | 1.06 | 15.2
Nc1nc(SCC#CCCl)c2[nH]cnc2n1 | 1.64 | 6.87 | 2.16 | 10.4 | 8.02 | 26.7 | 4.46 | 20.1 | 3.05 | 14.9 | 7.56 | 27.6 | 4.75 | 18 | 4.23 | 17.5 | 4.1 | 17.5 | 5.26 | 21.1
COc1cc(OC)c(/C=C/S(=O)(=O)Cc2ccc(OC)c(N)n2)c(OC)c1 | < 0.01 |  | 0.093 | > 100 |  | > 100 | < 0.0247 | > 100 | < 0.01 | > 100 | < 0.01 | > 100 | < 0.0171 | > 100 |  | > 100 | < 0.01 | > 100 | 57.3 | > 100
COC(=O)[C@]12CC[C@@H](C)[C@H](C)[C@@H]1C1=CC[C@@H]3[C@@]4(C)C[C@@H](OC(C)=O)[C@H](OC(C)=O)[C@@](C)(COC(C)=O)[C@@H]4[C@H](O)C[C@@]3(C)[C@]1(C)CC2 | 1.92 | 68.5 | 3.9 | > 100 | 5.09 | > 100 | 2.25 | > 100 | 6.88 | 61.4 | 3.1 | > 100 |  |  | 4.32 | > 100 | 0.892 | > 100 | 1.03 | 8.04
COc1ccc2c(c1O)[C@@]13CCCC=C1[C@@H](C2)N(C)CC3 |  |  |  | > 100 |  | > 100 |  | > 100 |  | > 100 |  | > 100 |  | > 100 |  | > 100 |  | > 100 |  | > 100
